Data: patent US20140171429A1, “BICYCLIC INHIBITORS OF ALK” (ABBVIE INC., priority 2011, published 2014)

What follows are molecules tested against T1, ALK (Homo sapiens, UniProt Q9UM73) (assay: ALK kinase assay (HTRF_ALK)). Conditions: apparent Ki converted from IC50 by the Cheng-Prusoff relationship; ALK (Millipore), 50 μM ATP, 1 h at room temperature.
T1 construct: purchased Millipore
Format: biochemical

T1 sequence (Q9UM73 19-1620): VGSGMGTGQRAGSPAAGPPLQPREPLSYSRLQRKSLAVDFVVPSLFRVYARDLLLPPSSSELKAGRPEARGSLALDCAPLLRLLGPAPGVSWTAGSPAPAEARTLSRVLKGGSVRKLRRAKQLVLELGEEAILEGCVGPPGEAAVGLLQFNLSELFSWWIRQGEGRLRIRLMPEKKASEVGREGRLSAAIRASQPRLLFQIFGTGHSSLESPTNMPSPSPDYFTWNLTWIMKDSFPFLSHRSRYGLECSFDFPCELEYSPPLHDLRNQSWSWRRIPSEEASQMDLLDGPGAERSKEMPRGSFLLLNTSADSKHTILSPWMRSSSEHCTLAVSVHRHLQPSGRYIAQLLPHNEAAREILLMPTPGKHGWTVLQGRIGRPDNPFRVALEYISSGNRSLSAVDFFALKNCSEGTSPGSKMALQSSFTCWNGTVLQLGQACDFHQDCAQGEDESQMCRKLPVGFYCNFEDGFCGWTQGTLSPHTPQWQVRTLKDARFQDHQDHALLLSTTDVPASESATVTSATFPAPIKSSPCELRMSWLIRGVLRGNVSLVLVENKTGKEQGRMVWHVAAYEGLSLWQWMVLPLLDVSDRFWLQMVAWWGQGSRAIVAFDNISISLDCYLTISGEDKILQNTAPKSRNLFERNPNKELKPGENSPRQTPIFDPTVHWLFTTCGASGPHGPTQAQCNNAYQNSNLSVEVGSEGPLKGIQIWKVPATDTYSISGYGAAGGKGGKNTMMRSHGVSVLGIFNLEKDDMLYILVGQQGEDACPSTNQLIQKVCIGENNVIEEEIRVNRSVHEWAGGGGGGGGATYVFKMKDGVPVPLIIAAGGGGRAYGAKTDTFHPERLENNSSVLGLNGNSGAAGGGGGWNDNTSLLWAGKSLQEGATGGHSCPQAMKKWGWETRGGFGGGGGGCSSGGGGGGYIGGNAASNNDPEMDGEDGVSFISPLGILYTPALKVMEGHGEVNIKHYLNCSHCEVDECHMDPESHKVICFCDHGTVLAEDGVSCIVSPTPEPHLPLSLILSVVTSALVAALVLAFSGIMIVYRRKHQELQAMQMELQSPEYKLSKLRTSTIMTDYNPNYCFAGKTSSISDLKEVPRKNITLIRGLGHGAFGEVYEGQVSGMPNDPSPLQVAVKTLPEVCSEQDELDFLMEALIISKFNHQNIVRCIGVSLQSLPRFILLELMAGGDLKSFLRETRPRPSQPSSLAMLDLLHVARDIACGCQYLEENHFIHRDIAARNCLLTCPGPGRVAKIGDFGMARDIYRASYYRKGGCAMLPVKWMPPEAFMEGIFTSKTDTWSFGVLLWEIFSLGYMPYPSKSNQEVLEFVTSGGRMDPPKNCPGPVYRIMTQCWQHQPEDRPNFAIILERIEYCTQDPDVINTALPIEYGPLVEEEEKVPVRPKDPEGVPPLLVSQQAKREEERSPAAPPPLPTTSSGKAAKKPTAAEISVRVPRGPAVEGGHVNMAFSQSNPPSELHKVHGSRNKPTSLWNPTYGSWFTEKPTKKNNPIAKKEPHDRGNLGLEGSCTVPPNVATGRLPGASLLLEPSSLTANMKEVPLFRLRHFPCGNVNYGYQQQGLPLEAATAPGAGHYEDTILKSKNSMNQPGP

Ki | SMILES
0.022 µM | COc1cc(C(=O)NCCN2CCN(C)CC2)ccc1Nc1cc(Cc2c(Cl)cccc2Cl)nc2cc[nH]c(=O)c12 [Example 25, 4-{[2-(2,6-dichlorobenzyl)-5-oxo-5,6-dihydro-1,6-naphthyridin-4-yl]amino}-3-methoxy-N-[2-(4-methylpiperazin-1-yl)ethyl]benzamide]
> 1 µM | COc1cc(C(=O)N2CCN(C)CC2)ccc1Nc1nc(Cc2c(Cl)cccc2Cl)cc2cc[nH]c(=O)c12 [Example 17, 6-(2,6-dichlorobenzyl)-8-({2-methoxy-4-[(4-methylpiperazin-1-yl)carbonyl]phenyl}amino)-2,7-naphthyridin-1(2H)-one]
0.004 µM | COc1cc(N2CCNCC2)ccc1Nc1cc(Cc2c(Cl)cccc2Cl)nc2cc[nH]c(=O)c12 [Example 2, 2-(2,6-dichlorobenzyl)-4-{[2-methoxy-4-(piperazin-1-yl)phenyl]amino}-1,6-naphthyridin-5(6H)-one]
0.051 µM | COc1cc(C(=O)N2CCN(C)CC2)ccc1Nc1cc(Cc2c(Cl)cccc2Cl)nc2cc[nH]c(=O)c12 [Example 20, 2-(2,6-dichlorobenzyl)-4-({2-methoxy-4-[(4-methylpiperazin-1-yl)carbonyl]phenyl}amino)-1,6-naphthyridin-5(6H)-one]
0.025 µM | COc1cc(C(=O)NCCN2CCCC2)ccc1Nc1cc(Cc2c(Cl)cccc2Cl)nc2cc[nH]c(=O)c12 [Example 21, 4-{[2-(2,6-dichlorobenzyl)-5-oxo-5,6-dihydro-1,6-naphthyridin-4-yl]amino}-3-methoxy-N-[2-(pyrrolidin-1-yl)ethyl]benzamide]
0.003 µM | O=c1[nH]ccc2nc(Cc3c(Cl)cccc3Cl)cc(Nc3ccc(N4CCNCC4)c(F)c3)c12 [Example 13, 2-(2,6-dichlorobenzyl)-4-(3-fluoro-4-(piperazin-1-yl)phenylamino)-1,6-naphthyridin-5(6H)-one]
0.007 µM | COc1cc(N2CCNCC2)ccc1Nc1cc(Cc2ccccc2Cl)nc2cc[nH]c(=O)c12 [Example 31, 2-(2-chlorobenzyl)-4-{[2-methoxy-4-(piperazin-1-yl)phenyl]amino}-1,6-naphthyridin-5(6H)-one]
0.008 µM | COc1cc(N2CCN(C)CC2)ccc1Nc1cc(Cc2c(Cl)cccc2Cl)nc2cc[nH]c(=O)c12 [Example 1, 2-(2,6-dichlorobenzyl)-4-{[2-methoxy-4-(4-methylpiperazin-1-yl)phenyl]amino}-1,6-naphthyridin-5 (6H)-one]
0.012 µM | COc1cc(C(=O)NCCN(C)C)ccc1Nc1cc(Cc2c(Cl)cccc2Cl)nc2cc[nH]c(=O)c12 [Example 23, 4-{[2-(2,6-dichlorobenzyl)-5-oxo-5,6-dihydro-1,6-naphthyridin-4-yl]amino}-N-[2-(dimethylamino)ethyl]-3-methoxybenzamide]
0.07 µM | COc1cc(N2CCNCC2)ccc1Nc1cc(Cc2c(Cl)cccc2Cl)nc2nc[nH]c(=O)c12 [Example 11, 7-(2,6-dichlorobenzyl)-5-{[2-methoxy-4-(piperazin-1-yl)phenyl]amino}pyrido[2,3-d]pyrimidin-4(3H)-one]
0.084 µM | COc1cc(N2CCNCC2)ccc1Nc1nc(Cc2c(Cl)cccc2Cl)nc2cc[nH]c(=O)c12 [Example 14, 2-(2,6-dichlorobenzyl)-4-{[2-methoxy-4-(piperazin-1-yl)phenyl]amino}pyrido[4,3-d]pyrimidin-5(6H)-one]
0.025 µM | COc1cc(C(=O)NCCCN2CCOCC2)ccc1Nc1nc(Cc2c(Cl)cccc2Cl)cc2cc[nH]c(=O)c12 [Example 19, 4-{[3-(2,6-dichlorobenzyl)-8-oxo-7,8-dihydro-2,7-naphthyridin-1-yl]amino}-3-methoxy-N-[3-(morpholin-4-yl)propyl]benzamide]
0.18 µM | COc1cc(N2CCC(N(C)C)CC2)ccc1Nc1nc(Cc2c(Cl)cccc2Cl)cc2cc[nH]c(=O)c12 [Example 10, 6-(2,6-dichlorobenzyl)-8-({4-[4-(dimethylamino)piperidin-1-yl]-2-methoxyphenyl}amino)-2,7-naphthyridin-1(2H)-one]
0.02 µM | COc1cc(C(=O)NCCCCN(C)C)ccc1Nc1cc(Cc2c(Cl)cccc2Cl)nc2cc[nH]c(=O)c12 [Example 30, 4-{[2-(2,6-dichlorobenzyl)-5-oxo-5,6-dihydro-1,6-naphthyridin-4-yl]amino}-N-[4-(dimethylamino)butyl]-3-methoxybenzamide]
0.008 µM | COc1cc(C(=O)NCCN2CCCCC2)ccc1Nc1cc(Cc2c(Cl)cccc2Cl)nc2cc[nH]c(=O)c12 [Example 24, 4-{[2-(2,6-dichlorobenzyl)-5-oxo-5,6-dihydro-1,6-naphthyridin-4-yl]amino}-3-methoxy-N-[2-(piperidin-1-yl)ethyl]benzamide]
0.48 µM | O=c1[nH]ccc2cc(Cc3c(F)cccc3Cl)nc(Nc3ccc(N4CCNCC4)cc3)c12 [Example 16, 6-(2-chloro-6-fluorobenzyl)-8-{[4-(piperazin-1-yl)phenyl]amino}-2,7-naphthyridin-1(2H)-one]

Ki | SMILES
0.017 µM | COc1cc(C(=O)NCCN2CCCCC2)ccc1Nc1nc(Cc2c(Cl)cccc2Cl)cc2cc[nH]c(=O)c12 [Example 27, 4-{[3-(2,6-dichlorobenzyl)-8-oxo-7,8-dihydro-2,7-naphthyridin-1-yl]amino}-3-methoxy-N-[2-(piperidin-1-yl)ethyl]benzamide]
0.051 µM | COc1cc(C(=O)NCCCN2CCOCC2)ccc1Nc1cc(Cc2c(Cl)cccc2Cl)nc2cc[nH]c(=O)c12 [Example 18, 4-{[2-(2,6-dichlorobenzyl)-5-oxo-5,6-dihydro-1,6-naphthyridin-4-yl]amino}-3-methoxy-N-[3-(morpholin-4-yl)propyl]benzamide]
0.212 µM | COc1cc(C(=O)NCCN2CCN(C)CC2)ccc1Nc1nc(Cc2c(Cl)cccc2Cl)cc2cc[nH]c(=O)c12 [Example 26, 4-{[3-(2,6-dichlorobenzyl)-8-oxo-7,8-dihydro-2,7-naphthyridin-1-yl]amino}-3-methoxy-N-[2-(4-methylpiperazin-1-yl)ethyl]benzamide]
0.036 µM | COc1cc(C(=O)NCCCCN(C)C)ccc1Nc1nc(Cc2c(Cl)cccc2Cl)cc2cc[nH]c(=O)c12 [Example 28, 4-{[3-(2,6-dichlorobenzyl)-8-oxo-7,8-dihydro-2,7-naphthyridin-1-yl]amino}-N-[4-(dimethylamino)butyl]-3-methoxybenzamide]
0.006 µM | COc1cc(N2CCNCC2)ccc1Nc1nc(Cc2c(Cl)cccc2Cl)cc2nc[nH]c(=O)c12 [Example 6, 7-(2,6-dichlorobenzyl)-5-{[2-methoxy-4-(piperazin-1-yl)phenyl]amino}pyrido[4,3-d]pyrimidin-4(3H)-one]
0.01 µM | O=c1[nH]cnc2cc(Cc3c(Cl)cccc3Cl)nc(Nc3ccc(N4CCNCC4)cc3)c12 [Example 7, 7-(2,6-dichlorobenzyl)-5-{[4-(piperazin-1-yl)phenyl]amino}pyrido[4,3-d]pyrimidin-4(3H)-one]
1.45 µM | O=c1[nH]ccc2nc(Cc3c(Cl)cccc3Cl)nc(Nc3ccc(N4CCNCC4)cc3)c12 [Example 15, 2-(2,6-dichlorobenzyl)-4-{[4-(piperazin-1-yl)phenyl]amino}pyrido[4,3-d]pyrimidin-5(6H)-one]
0.014 µM | O=c1[nH]ccc2cc(Cc3c(Cl)cccc3Cl)nc(Nc3ccc(N4CCNCC4)cc3)c12 [Example 9, 6-(2,6-dichlorobenzyl)-8-{[4-(piperazin-1-yl)phenyl]amino}-2,7-naphthyridin-1(2H)-one]
0.064 µM | COc1cc(N2CCN(C)CC2)ccc1Nc1nc(Cc2c(Cl)cccc2Cl)cc2cc[nH]c(=O)c12 [Example 4, 6-(2,6-dichlorobenzyl)-8-{[2-methoxy-4-(4-methylpiperazin-1-yl)phenyl]amino}-2,7-naphthyridin-1(2H)-one]
0.013 µM | COc1cc(N2CCNCC2)ccc1Nc1nc(Cc2c(Cl)cccc2Cl)nc2nc[nH]c(=O)c12 [Example 12, 7-(2,6-dichlorobenzyl)-5-{[2-methoxy-4-(piperazin-1-yl)phenyl]amino}pyrimido[4,5-d]pyrimidin-4(3H)-one]
0.011 µM | COc1cc(C(=O)N2CCNCC2)ccc1Nc1cc(Cc2c(Cl)cccc2Cl)nc2cc[nH]c(=O)c12 [Example 29, 2-(2,6-dichlorobenzyl)-4-{[2-methoxy-4-(piperazin-1-ylcarbonyl)phenyl]amino}-1,6-naphthyridin-5(6H)-one]
0.054 µM | COc1cc(C(=O)NCCN2CCCC2)ccc1Nc1nc(Cc2c(Cl)cccc2Cl)cc2cc[nH]c(=O)c12 [Example 22, 4-{[3-(2,6-dichlorobenzyl)-8-oxo-7,8-dihydro-2,7-naphthyridin-1-yl]amino}-3-methoxy-N-[2-(pyrrolidin-1-yl)ethyl]benzamide]
0.003 µM | COc1cc(N2CCNCC2)ccc1Nc1nc(Cc2c(Cl)cccc2Cl)cc2cc[nH]c(=O)c12 [Example 8, 6-(2,6-dichlorobenzyl)-8-{[2-methoxy-4-(piperazin-1-yl)phenyl]amino}-2,7-naphthyridin-1(2H)-one]
0.007 µM | COc1cc(N2CCN(C)CC2)ccc1Nc1nc(Cc2c(Cl)cccc2Cl)cc2nc[nH]c(=O)c12 [Example 5, 7-(2,6-dichlorobenzyl)-5-{[2-methoxy-4-(4-methylpiperazin-1-yl)phenyl]amino}pyrido[4,3-d]pyrimidin-4(3H)-one]
0.072 µM | O=c1[nH]ccc2nc(Cc3c(Cl)cccc3Cl)cc(Nc3ccc(N4CCNCC4)cc3)c12 [Example 3, 2-(2,6-dichlorobenzyl)-4-{[4-(piperazin-1-yl)phenyl]amino}-1,6-naphthyridin-5(6H)-one]
